According to article PMC7376718, “Flavonoids isolated from the South African weed Chromolaena odorata (Asteraceae) have pharmacological activity against uropathogens” (BMC Complementary Medicine and Therapies, 2020):
Converted amounts (≈) assume the structure as drawn. Where two headings read alike, the source gives them in different places.

Tests used:
[1] = tested on: Aspergillus fumigatus from a chicken; assay: MIC, serial microdilution with INT; type: cell-based; settings: for MIC: Aspergillus fumigatus, read-out: Minimum inhibitory concentration
Description: (§1) The cultures used were Escherichia coli (American Type Culture Collection, ATCC 25922) labelled as 1, E. coli isolates (B1989/17 and B1962/17) labelled as 2 and 3 from equine urine, collected from the Department of Veterinary Tropical Diseases, Faculty of Veterinary Science, University of Pretoria, South Africa, Klebsiella pneumoniae isolate from commercial chicken eggs, Enterococcus faecalis (ATCC 29212), Pseudomonas aeruginosa (ATCC 27853), Staphylococcus aureus (ATCC 29213), Candida albicans from a Gouldian finch, Aspergillus fumigatus from a chicken and Cryptococcus neoformans from a cheetah. These microbial strains were maintained on MHA or SDA for bacteria and fungi respectively, while the isolates were maintained on blood agar.
(§2) Ten mg/mL of each fraction and 1 mg/mL of isolated compounds were prepared in 10% DMSO and tested against S. aureus, E. coli, K. pneumoniae, E. faecalis, P. aeruginosa, C. albicans, C. neoformans and A. fumigatus. Cultures were prepared by inoculating each microbial strain from prepared agar plates into sterilized MHB for bacterial and SDB for fungi in sterile McCartney bottles respectively. The inoculums were placed in an orbital shaker incubator. Bacterial strains were incubated at 37 °C for 18 h. Each bacterial culture was diluted in fresh MHB and the absorbance was measured at a wavelength of 560 nm using a microplate reader (Epoch Biotek). The readings were compared to a McFarland standard No. 1 correlating to approximately 3 × 10^8 cfu/mL). For fungi strains, cultures were incubated at 30 °C for 24 h (C. albicans), 72 h (C. neoformans) and 120 h (A. fumigatus) respectively. The resultant cells and spores were washed with sterile normal saline and absorbance was measured at a wavelength of 560 nm and turbidity was adjusted to a McFarland standard 1.This was further diluted in a 1:10 ratio in SDB to a turbidity of 5 × 10^5 cfu/mL. These diluted cultures (bacterial and fungi) were used for the screening following the serial microdilution method of Eloff.

[2] = tested on: Candida albicans from a Gouldian finch; assay: MIC, serial microdilution with INT; type: cell-based; settings: C. albicans, read-out: Minimum inhibitory concentration
Description: as §1, §2

[3] = tested on: Cryptococcus neoformans from a cheetah; assay: MIC, serial microdilution with INT; type: cell-based; settings: C. neoformans, read-out: Minimum inhibitory concentration
Description: as §1, §2

[4] = tested on: C. neoformans and A. fumigatus; assay: Mean MIC over the fungal isolates; type: cell-based
Description: as §1, §2

[5] = tested on: E. coli (B1962/17) isolate from equine urine, E. coli (3); assay: MIC, serial microdilution with INT; type: cell-based; settings: Escherichia coli, read-out: Minimum inhibitory concentration
Description: as §1, §2

[6] = tested on: E. coli (B1989/17) isolate from equine urine, E. coli (2); assay: MIC, serial microdilution with INT; type: cell-based; settings: Escherichia coli, read-out: Minimum inhibitory concentration
Description: as §1, §2

[7] = tested on: Escherichia coli (ATCC 25922), E. coli (1); assay: MIC, serial microdilution with INT; type: cell-based; settings: for MIC: Escherichia coli, ATCC25922, E. coli (1), read-out: Minimum inhibitory concentration
Description: as §1, §2

[8] = tested on: Klebsiella pneumoniae isolate from commercial chicken eggs; assay: MIC, serial microdilution with INT; type: cell-based; settings: K. pneumoniae; for MIC: Klebsiella pneumoniae, read-out: Minimum inhibitory concentration
Description: as §1, §2

[9] = tested on: Staphylococcus aureus (ATCC 29213); assay: MIC, serial microdilution with INT; type: cell-based; settings: ATCC29213, S. aureus, read-out: Minimum inhibitory concentration
Description: as §1, §2

[10] = tested on: S. aureus, E. coli (1), E. coli (2), E. coli (3), K. pneumoniae; assay: Mean MIC over the bacterial strains; type: cell-based; settings: mean over the five bacterial strains of Table 3
Description: as §1, §2

[11] = tested on: selected microbial strains; assay: MIC summarised over the selected microbial strains; type: cell-based; settings: summary over bacterial and fungal strains
Description: as §1, with “These microbial strains were maintained on MHA or SDA for bacteria and fungi respectively, while the isolates were maintained on blood agar.” left out
Ten mg/mL of each fraction and 1 mg/mL of isolated compounds were prepared in 10% DMSO and tested against S. aureus, E. coli, K. pneumoniae, E. faecalis, P. aeruginosa, C. albicans, C. neoformans and A. fumigatus. […] Each bacterial culture was diluted in fresh MHB and the absorbance was measured at a wavelength of 560 nm using a microplate reader (Epoch Biotek). The readings were compared to a McFarland standard No. 1 correlating to approximately 3 × 10^8 cfu/mL). […] The resultant cells and spores were washed with sterile normal saline and absorbance was measured at a wavelength of 560 nm and turbidity was adjusted to a McFarland standard 1.This was further diluted in a 1:10 ratio in SDB to a turbidity of 5 × 10^5 cfu/mL. […]

in vitro [12] = assay: in vitro
Method: (§3) Different concentrations of the compounds ranging from 0.003 to 0.2 mg/mL were tested for cytotoxicity against three cell lines; Vero monkey kidney, C3A and Caco2. Vero cells were grown and maintained in MEM, supplemented with 0.1% gentamicin and 5% foetal calf serum, while Caco2 and C3A cells were grown and maintained in DMEM supplemented with 10% foetal calf serum, 1% non-essential amino acids and 1% penicillin-streptomycin. All cells were incubated in a 5% CO2 incubator at 37 °C. Doxorubicin chloride was used as positive control while 10% DMSO used in dissolving the test samples was used as the negative control. The 3-(4,5-dimethylthiazol)-2,5-diphenyl tetrazolium bromide (MTT) assay described by Mosmann with modification by McGaw et al. was used to determine the cytotoxicity of the test samples. The lethal concentration (LC50) value was calculated as the concentration of tested sample resulting in a 50% reduction of absorbance compared to untreated cells. Selectivity index (SI) values were calculated against the MIC using the formula: […]

in vitro [13] = assay: in vitro; remark: listed apart in the source
Method: as §3

Caco2 cells = assay: in vitro; settings: Caco2
Method: as §3

S. aureus = tested on: S. aureus; set-up: method as in earlier work; settings: ref [70] Teffo et al.; cited from earlier work
E. coli = tested on: E. coli; set-up: method as in earlier work; settings: ref [70] Teffo et al.; cited from earlier work
Cytotoxicity, MTT assay = type: cell-based; settings: human, C3A cells, read-out: Lethal concentration (LC50)
Method: Different concentrations of the compounds ranging from 0.003 to 0.2 mg/mL were tested for cytotoxicity against three cell lines; Vero monkey kidney, C3A and Caco2. Vero cells were grown and maintained in MEM, supplemented with 0.1% gentamicin and 5% foetal calf serum, while Caco2 and C3A cells were grown and maintained in DMEM supplemented with 10% foetal calf serum, 1% non-essential amino acids and 1% penicillin-streptomycin. All cells were incubated in a 5% CO2 incubator at 37 °C. Doxorubicin chloride was used as positive control while 10% DMSO used in dissolving the test samples was used as the negative control. The 3-(4,5-dimethylthiazol)-2,5-diphenyl tetrazolium bromide (MTT) assay described by Mosmann [50] with modification by McGaw et al. [51] was used to determine the cytotoxicity of the test samples. The lethal concentration (LC50) value was calculated as the concentration of tested sample resulting in a 50% reduction of absorbance compared to untreated cells.

[14] = tested on: Enterococcus faecalis (ATCC 29212); assay: MIC, serial microdilution with INT; type: cell-based; settings: ATCC29212, E. faecalis, read-out: Minimum inhibitory concentration
Description: as §1, §2

[15] = tested on: Pseudomonas aeruginosa (ATCC 27853); assay: MIC, serial microdilution with INT; type: cell-based; settings: ATCC27853, P. aeruginosa, read-out: Minimum inhibitory concentration
Description: as §1, §2

C[C@@H]1[C@H](O)[C@@H](C)/C=C/C=C/C=C/C=C/C=C/C=C/C=C/[C@H](O[C@@H]2O[C@H](C)[C@@H](O)[C@H](N)[C@@H]2O)C[C@@H]2O[C@](O)(C[C@@H](O)C[C@@H](O)[C@H](O)CC[C@@H](O)C[C@@H](O)CC(=O)O[C@H]1C)C[C@H](O)[C@H]2C(=O)O [Amphotericin B, amphotericin B, reference compound]
MIC ([1]; 48 h): 31 µg/mL (≈ 33.5 µM)
MIC ([1]; 72 h): 63 µg/mL (≈ 68.2 µM)
MIC ([1]; 120 h): 125 µg/mL (≈ 135 µM)
MIC ([2]; 24 h): 31 µg/mL (≈ 33.5 µM)
MIC ([2]; 48 h): 63 µg/mL (≈ 68.2 µM)
MIC ([3]; 72 h, 72 h): 125 µg/mL (≈ 135 µM)
MIC ([3]; 120 h, 120 h): 125 µg/mL (≈ 135 µM)
MIC ([4]; all time points of Table 3): 70 ± 60 µg/mL (≈ 75.8 µM)
Mean MIC ([4]; all time points of Table 3, listed as Amp B): 70 µg/mL

O=C(O)c1cn(C2CC2)c2cc(N3CCNCC3)c(F)cc2c1=O [Ciprofloxacin, ciprofloxacin, reference compound]
MIC [5]: 1 µg/mL (≈ 3.02 µM)
MIC [6]: 0.05 µg/mL (≈ 0.151 µM)
MIC [7]: 2 µg/mL (≈ 6.04 µM)
Minimum inhibitory concentration [8]: 50 µg/mL (≈ 151 µM)
MIC [8]: 50 µg/mL (≈ 151 µM)
MIC [9]: 63 µg/mL (≈ 190 µM)
MIC [10]: 20 µg/mL (≈ 60.4 µM)

COc1ccc(-c2cc(=O)c3c(O)c(OC)c(O)cc3o2)cc1 [Compound 1, 5,7-dihydroxy-4′,6-dimethoxy-flavone]
Minimum inhibitory concentration ([1]; 48 h): good activity
MIC ([1]; 48 h): 63 µg/mL (≈ 200 µM)
MIC ([1]; 72 h): 250 µg/mL (≈ 795 µM)
MIC ([1]; 120 h): > 2500 µg/mL
MIC ([3]; 48 h, 48 h): > 250 µg/mL
MIC ([3]; 72 h, 72 h): > 250 µg/mL
MIC [5]: > 250 µg/mL
MIC [6]: > 250 µg/mL
MIC [7]: 250 µg/mL (≈ 795 µM)
MIC [8]: 250 µg/mL (≈ 795 µM)
MIC [9]: 250 µg/mL (≈ 795 µM)
MIC [10]: 250 µg/mL (≈ 795 µM)
MIC, range or verdict over the strains tested [11]: weak antimicrobial activity

COc1ccc(-c2oc3cc(O)cc(O)c3c(=O)c2O)cc1 [Compound 4, 3,5,7-trihydroxy-4′-methoxyflavone]
MIC ([1]; 48 h): 250 µg/mL (≈ 833 µM)
MIC ([1]; 72 h): > 250 µg/mL
MIC ([1]; 120 h): > 2500 µg/mL
MIC ([3]; 48 h, 48 h): > 250 µg/mL
MIC ([3]; 72 h, 72 h): > 250 µg/mL
MIC [5]: > 250 µg/mL
MIC [6]: > 250 µg/mL
MIC [7]: 125 µg/mL (≈ 416 µM)
MIC [8]: > 250 µg/mL
MIC [9]: 250 µg/mL (≈ 833 µM)
MIC, range or verdict over the strains tested [11]: weak antimicrobial activity
CC50 (in vitro [12]): > 200 µg/mL
CC50 (in vitro [13]): 193 µg/mL (≈ 643 µM)
Selectivity index (LC50/MIC) (Caco2 cells; E. coli (1)): 1.544
Selectivity index (LC50/MIC) (Caco2 cells; S. aureus): 0.772
MIC / antibacterial activity (S. aureus): 250 µg/mL (≈ 833 µM)
MIC / antibacterial activity (E. coli): 125 µg/mL (≈ 416 µM)

COc1cccc2c1C(=O)c1c(O)c3c(c(O)c1C2=O)C[C@@](O)(C(=O)CO)C[C@@H]3O[C@H]1C[C@H](N)[C@H](O)[C@H](C)O1 [Doxorubicin, Doxorubicin chloride, reference compound]
CC50 (Cytotoxicity, MTT assay): 3.3 µg/mL

CNC(C)C1CCC(N)C(OC2C(N)CC(N)C(OC3OCC(C)(O)C(NC)C3O)C2O)O1 (stereo not shown) [Gentamicin, gentamicin, reference compound]
MIC ([1]; 120 h): > 2500 µg/mL
MIC [5]: 8 µg/mL (≈ 16.8 µM)
MIC [6]: 31 µg/mL (≈ 64.9 µM)
MIC [14]: 500 µg/mL (≈ 1050 µM)
Minimum inhibitory concentration ([7]; E. coli (1)): 16 µg/mL (≈ 33.5 µM)
MIC [7]: 20 µg/mL (≈ 41.9 µM)
Minimum inhibitory concentration [8]: 250 µg/mL (≈ 523 µM)
MIC [8]: 500 µg/mL (≈ 1050 µM)
MIC [15]: 8 µg/mL (≈ 16.8 µM)
MIC [9]: 8 µg/mL (≈ 16.8 µM)
MIC [10]: 60 ± 110 µg/mL (≈ 126 µM)
Mean MIC [10]: 60 µg/mL
CC50 (in vitro [12]): > 200 µg/mL
CC50 (in vitro [13]): > 200 µg/mL
